Assay results published in patent US9895381B2, “Vitamin D receptor agonists to treat diseases involving CXCL12 activity” (Salk Institute for Biological Studies, priority 2013, dated 2018).
≈ marks a conversion by molar mass, not a printed value.

How the values were obtained:
[1] = system: wild-type C57BL6/J mice; assay: Cerulein-induced chronic pancreatitis model; type: in vivo, mouse; details: for inflammation and fibrosis: cerulein plus 40 μg/kg calcipotriol i.p. vs cerulein alone
Experimental: Tissues were embedded in O.C.T. and frozen sections were fixed in ice-cold methanol at −20° C. for 20 min. Sections were blocked in PBS+0.2% BSA+0.05% Triton X-100 (blocking solution) for 1 h at room temperature. Primary antibody dilutions in blocking solution were as follows: anti-phospho-STAT3(Tyr705), 1:100 (Cell Signaling Technology); anti-Collagen I, 1:500 (Abcam), anti-GFAP, 1:100 (Abcam); anti-CD45, 1:100 (BD Pharmingen). Primary antibody incubations were performed in a humidified chamber at 4° C. overnight. Sections were washed 3 times with PBS+0.05% Triton X-100, then incubated in secondary antibodies for 1 h at room temperature, protected from light. Secondary antibodies used included Alexa Fluor 594 goat anti-rabbit IgG, Alexa Fluor 488 goat anti-rabbit IgG, Alexa Fluor 594 goat anti-rat IgG, and Alexa Fluor 488 goat anti-mouse IgG (Molecular Probes) and were used at 1:250 in blocking solution. Sections were washed 3 times with PBS and mounted using Vectastain mounting medium with or without DAPI. Fluorescence was visualized on a Leica DM5000B fluorescent microscope and quantified using ImageJ. Chronic pancreatitis was induced in wild-type C57BL6/J mice beginning at 8 weeks of age. Ten animals per cohort received intraperitoneal injections of saline, 50 μg/kg cerulein, or cerulein plus 40 μg/kg calcipotriol. Cerulein injections were administered as 6 hourly injections 2 times per week for 12 weeks and analyzed 1 week after final cerulein injection, adapted from previous studies (Sah et al., 2013; Treiber et al., 2011; Yoo et al., 2005). Calcipotriol injections were administered 3 times per week for the duration of the chronic pancreatitis study. For acute pancreatitis studies, 8-week-old wild-type or Vdr−/− mice received 6 hourly intraperitoneal injections of 50 μg/kg cerulein on days 1, 3, and 5, with or without single daily injections of 40 μg/kg calcipotriol. Mice were sacrificed on day 6. At necropsy, pancreata were harvested and digested for PSC isolation as described above, or prepared for histological analysis as described herein. Histological sections were cut from formalin-fixed tissues at 7 μm thickness Sirius Red/Fast Green staining (Chondrex) was performed per manufacturer's instructions. Images were obtained and quantification of Sirius Red-positive area performed using Nuance 3.0.1.2 software. Six independent fields were captured per sample.

[2] = system: wild type mice; assay: Cerulein-induced acute pancreatitis model; type: in vivo, mouse; details: cerulein with daily 40 μg/kg calcipotriol
Experimental: Tissues were embedded in O.C.T. and frozen sections were fixed in ice-cold methanol at −20° C. for 20 min. Sections were blocked in PBS+0.2% BSA+0.05% Triton X-100 (blocking solution) for 1 h at room temperature. Primary antibody dilutions in blocking solution were as follows: anti-phospho-STAT3(Tyr705), 1:100 (Cell Signaling Technology); anti-Collagen I, 1:500 (Abcam), anti-GFAP, 1:100 (Abcam); anti-CD45, 1:100 (BD Pharmingen). Primary antibody incubations were performed in a humidified chamber at 4° C. overnight. Sections were washed 3 times with PBS+0.05% Triton X-100, then incubated in secondary antibodies for 1 h at room temperature, protected from light. Secondary antibodies used included Alexa Fluor 594 goat anti-rabbit IgG, Alexa Fluor 488 goat anti-rabbit IgG, Alexa Fluor 594 goat anti-rat IgG, and Alexa Fluor 488 goat anti-mouse IgG (Molecular Probes) and were used at 1:250 in blocking solution. […] Fluorescence was visualized on a Leica DM5000B fluorescent microscope and quantified using ImageJ. […] Cerulein injections were administered as 6 hourly injections 2 times per week for 12 weeks and analyzed 1 week after final cerulein injection, adapted from previous studies (Sah et al., 2013; Treiber et al., 2011; Yoo et al., 2005). […] Images were obtained and quantification of Sirius Red-positive area performed using Nuance 3.0.1.2 software. […]

[3] = system: primary human CAPSCs; assay: Lipid droplet accumulation assay (BODIPY 493/503); type: cell-based; details: 100 nM Cal, 48 h; samples responding / samples tested
Experimental: Primary human CAPSCs were seeded onto glass coverslips. After overnight attachment, cells were treated with vehicle (DMSO) or 100 nM calcipotriol for 48 h. Media was aspirated, cells were washed twice with PBS (Gibco) and fixed in 10% buffered formalin at room temperature for 15 minutes. Fixative was removed and cells were washed three times with PBS. Cells were then stained with 1 μg/ml 4,4-Difluoro-1,3,5,7,8-Pentamethyl-4-Bora-3a,4a-Diaza-s-Indacene (BODIPY 493/503, Molecular Probes) for 1 h at room temperature, protected from light. Dye was removed and cells were washed three times with PBS, then mounted using Vectastain mounting medium (Vector Labs). Fluorescence was visualized through the GFP filter on a Leica DM5000B fluorescent microscope and quantification performed using ImageJ.

[4] = cited from earlier work
[5] = system: primary mouse PSCs; assay: RNA-Seq transcriptome of PSCs with or without VDR ligand; type: cell-based
Experimental: Pancreatic stellate cells (PSCs) were isolated from pancreata of wild-type C57BL6/J mice at 8 weeks of age by a modification of the method described by Apte et al. (Apte et al., 1998). Briefly, pancreatic tissue was minced with scissors and digested with 0.02% Pronase (Roche, Indianapolis, Ind.), 0.05% Collagenase P (Roche), and 0.1% DNase (Roche) in Gey's balanced salt solution (GBSS; Sigma Aldrich, St. Louis, Mo.) at 37° C. for […] Digested tissue was then filtered through a 100 μm nylon mesh. Cells were washed once with GBSS, pelleted, and resuspended in 9.5 ml GBSS containing 0.3% bovine serum albumin (BSA) and 8 ml 28.7% Nycodenz solution (Sigma Aldrich; approximate density of the solution is 1.070). The cell suspension was layered beneath GBSS containing 0.3% BSA, and centrifuged at 1400×g for 20 min at 4° C. The cells of interest were harvested from the interface of the Nycodenz solution at the bottom and the aqueous solution at the top. Isolated PSCs were washed with GBSS and resuspended in DMEM (Invitrogen) containing 10% characterized FBS (HyClone) and antibiotics (penicillin 100 U/ml and streptomycin 100 μg/ml, Invitrogen). Cells were maintained at 37° C. in a humidified atmosphere of 7% CO2. After reaching 80% confluence, cells were briefly trypsinized (0.25% Trypsin-EDTA, Invitrogen) and subcultured. Total RNA from human and mouse PSCs was isolated using Trizol (Invitrogen) and the RNeasy mini kit with on-column DNase digestion (Qiagen) according to the manufacturers' instructions. Biological quadruplicates were used for human samples, and biological triplicates used for mouse samples. For transcriptome studies with VDR activation, PSCs were treated with vehicle (DMSO) or 100 nM calcipotriol (Tocris) and harvested at the indicated time points. Sequencing libraries were prepared from 100-500 ng total RNA using the TruSeq RNA Sample Preparation Kit v2 (Illumina) according to the manufacturer's protocol. The Gene Expression Omnibus accession number for the RNA-Seq data is GSE43770. Briefly, mRNA was purified, fragmented, and used for first-, then second-strand cDNA synthesis followed by adenylation of 3′ ends. Samples were ligated to unique adapters and subject to PCR amplification. Libraries were then validated using the 2100 BioAnalyzer (Agilent), normalized, and pooled for sequencing. Human normal and cancer-associated PSCs were sequenced on the Illumina GAII platform with a 41 bp read length, while mouse PSCs and human MiaPaCa-2 cells were sequenced on the Illumina HiSeq 2000 using bar-coded multiplexing and a 51 bp read length. Read alignment and junction mapping was accomplished using TopHat2 v2.0.4 using a 25 bp 5′ segment seed for initial mapping followed by differential gene expression analysis using Cuffdiff v2.0.2 to map reads to the reference genome annotation, NCBI mouse build 37.2 and human build 37.2 (Trapnell et al., 2012). Median sequencing read yield per replicate sample was 49.2M for MiaPaCa-2 cells, 25.4M for mouse PSCs and 53.8M for human PSCs. Data were expressed as fragments per kilobase of exon per million fragments mapped (FPKM). Volcano plots were generated from Cuffdiff output using CummeRbund v2.0.0 (Trapnell et al., 2012).

C=C1/C(=C\C=C2/CCC[C@]3(C)[C@@H]([C@H](C)/C=C/[C@@H](O)C4CC4)CC[C@@H]23)C[C@@H](O)C[C@@H]1O [Cal, 1α,24-(OH)2-24-cyclopropyl-D3]
inflammation and fibrosis [1]: attenuated inflammation and fibrosis | inflammation and fibrosis ([1]; listed as calcipotriol): markedly reduced inflammation and fibrosis | Acta2 expression in isolated PSCs ([1]; cerulein+Cal 12 weeks): trended downwards | phospho-Stat3 induction ([1]; cerulein+Cal 12 weeks): reduced induction of phospho-Stat3 | expression of activation and cancer signature genes in isolated PSCs ([1]; cerulein+Cal 12 weeks vs controls): decreased | activation-associated changes in PSC gene expression [2]: impaired activation-associated changes in PSC gene expression | leukocyte infiltration and fibrosis [2]: reduced leukocyte infiltration and fibrosis | lipid droplet formation, primary patient samples [3]: 19/27 | solubility in DMSO ([4]; DMSO): 100 mM (≈ 41.3 mg/mL) | solubility in ethanol ([4]; ethanol): 100 mM (≈ 41.3 mg/mL) | effect on activation and cancer signatures in PSCs [5]: inhibition of the activation and cancer signatures | genes with significantly decreased expression ([5]; activated PSCs): 1616 genes | genes with significantly increased expression ([5]; activated PSCs): 664 genes | genes with significantly decreased expression ([5]; pre-activated PSCs): 431 genes | genes with significantly increased expression ([5]; pre-activated PSCs): 307 genes
